Laboratory results reported in US20090291104A1 (Florida Atlantic University, priority 2005, published 2009).
pKd: −log10 of the molar value. Bridge positions count the residues as written; N and C are the ends. Peptide text beside a SMILES is read from it.

What was measured:
[1] = system: K+ channels in PC12 cells
Kv1.3 [2] = target: T1, Kv1.3 (Homo sapiens, UniProt P22001)
Kv1.3 [3] = target: T1, Kv1.3; test: cell-based
[4] = target: Kv1.3 potassium channel (transiently transfected into HEK293 cells); test: cell-based or functional assay
[5] = target: Kv1.3 potassium channel (transiently transfected into HEK293 cells)

T1 sequence (P22001 whole entry): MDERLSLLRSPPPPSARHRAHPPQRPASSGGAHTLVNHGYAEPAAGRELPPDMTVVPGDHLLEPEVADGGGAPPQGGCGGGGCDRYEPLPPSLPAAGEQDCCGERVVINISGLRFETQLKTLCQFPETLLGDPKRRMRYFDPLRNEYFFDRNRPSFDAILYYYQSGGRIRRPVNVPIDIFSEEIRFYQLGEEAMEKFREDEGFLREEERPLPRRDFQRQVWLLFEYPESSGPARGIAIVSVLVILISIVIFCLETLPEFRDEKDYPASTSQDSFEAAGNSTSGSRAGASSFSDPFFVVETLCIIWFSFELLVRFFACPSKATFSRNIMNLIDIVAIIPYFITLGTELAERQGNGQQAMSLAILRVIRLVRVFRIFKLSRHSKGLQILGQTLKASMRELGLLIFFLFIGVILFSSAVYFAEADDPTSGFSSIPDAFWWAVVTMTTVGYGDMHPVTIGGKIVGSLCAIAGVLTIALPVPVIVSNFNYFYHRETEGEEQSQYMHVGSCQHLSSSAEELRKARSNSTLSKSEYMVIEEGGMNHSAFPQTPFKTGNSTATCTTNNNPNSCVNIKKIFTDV

Row | Molecule | block of K+ channels [1] | V50 of steady-state activation curve (Boltzmann fit) (Kv1.3 [2]) | V50 of steady-state current-voltage relationship (Kv1.3 [2]) | V50 of steady-state current-voltage relationship after washing the toxin (Kv1.3 [2]) | reduction of Kv1.3 currents (Kv1.3 [2]) | reversibility of block (Kv1.3 [2]) | voltage dependence of reduction in K+ current (Kv1.3 [2]) | pKd (Kv1.3 [3]) | reduction of Kv1.3 K+ currents (whole-cell voltage clamp, HEK293) [4] | pKd [5]
1 | CC[C@H](C)[C@@H]1NC(=O)[C@@H](NC(=O)[C@H](CCCNC(=N)N)NC(=O)CNC(=O)[C@H](CC(C)C)NC(=O)CNC(=O)CN)CSSC[C@@H](C(=O)N[C@@H](Cc2ccc(O)cc2)C(=O)O)NC(=O)[C@H](CCSC)NC(=O)[C@H]([C@@H](C)O)NC(=O)[C@H](CCCCN)NC(=O)[C@@H]2CSSC[C@H](NC(=O)[C@H](CC(N)=O)NC(=O)[C@H](Cc3ccc(O)cc3)NC1=O)C(=O)N[C@@H](CCSC)C(=O)N[C@@H](CC(N)=O)C(=O)N[C@@H](CO)C(=O)NCC(=O)NCC(=O)NCC(=O)N[C@@H](CC(C)C)C(=O)N[C@@H](CO)C(=O)N[C@@H](Cc1ccccc1)C(=O)N[C@@H]([C@@H](C)CC)C(=O)N[C@@H](CCC(N)=O)C(=O)N2 [vil14a] (H-GGLGRCIYNCMNSGGGLSFIQCKTMCY-OH; disulfide 6-26, 10-22) | blocks K^+ channels | +9 mV | 19 mV | −4.4 mV | ≈ 39% | reversible | voltage dependent | 4.81 | – | –
2 | vil14a conotoxin (framework 14 conotoxin from Conus villepinii) (peptide) | – | – | – | – | – | – | – | – | 39% | 4.81
